For 1 compound, X-ray crystallography results are on record in publication PMC9128668 (Nature, 2021).

Molecules are shown by their SMILES.

This assay addresses T1, BT1622^3S-Gal/GalNAc (Bacteroides thetaiotaomicron, UniProt Q8A7A3).
T1 sequence (Q8A7A3 21-500): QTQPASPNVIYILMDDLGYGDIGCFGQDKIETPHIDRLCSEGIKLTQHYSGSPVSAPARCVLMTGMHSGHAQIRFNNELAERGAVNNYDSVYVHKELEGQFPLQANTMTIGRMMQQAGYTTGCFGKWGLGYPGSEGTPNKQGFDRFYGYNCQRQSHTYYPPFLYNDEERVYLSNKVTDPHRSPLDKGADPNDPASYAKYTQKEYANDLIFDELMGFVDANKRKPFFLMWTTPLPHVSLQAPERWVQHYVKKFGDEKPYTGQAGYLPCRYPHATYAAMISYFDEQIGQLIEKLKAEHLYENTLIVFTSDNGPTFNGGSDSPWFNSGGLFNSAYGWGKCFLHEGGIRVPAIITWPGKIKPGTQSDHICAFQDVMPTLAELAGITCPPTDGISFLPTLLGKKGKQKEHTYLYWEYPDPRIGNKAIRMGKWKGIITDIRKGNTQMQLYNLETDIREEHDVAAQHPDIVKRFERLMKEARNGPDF
In words: X-ray crystallography. Format: binding. Conditions: active site; Ca2+; inactive Ser form; 100 mM ligand.

As for `CC(=O)N[C@H]1C(O)O[C@H](CO)[C@H](O)[C@@H]1O` (stereo partly shown) [GalNAc], the X-ray crystallography result is “BT1622^3S-Gal/GalNAc in complex with GalNAc”.
